The supplement of paper PMC10307832

Legend:
Test in all cases: relative viability (nuclei count vs DMSO), 5 days (fraction); higher = more cells survive
[1] = test system: 201T
Method in brief: (§1)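 Lung cancer cell lines were seeded in 1536-well plates and dosed by pin tool the next day, with either a single drug or a fixed anchor-drug dose combined with five library-drug doses (not always all listed) spaced in √10 steps. Five days later, one step fixed the cells and stained their nuclei (final 0.05% Triton X-100, 1% formaldehyde, 1 ug/ml Hoechst), and nuclei were counted on 4× images. Relative viability is the nuclei count in treated wells divided by the count in vehicle wells, and each value is the median of duplicate plates.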

[2] = test system: A-427
Method in brief: as §1

[3] = test system: COR-L23
Method in brief: as §1

[4] = test system: HARA
Method in brief: as §1

[5] = test system: HCC-78
Method in brief: as §1

[6] = test system: LCLC-103H
Method in brief: as §1

[7] = test system: LCLC-97TM1
Method in brief: as §1

[8] = test system: LK-2
Method in brief: as §1

[9] = test system: LOU-NH91
Method in brief: as §1

[10] = test system: LXF-289
Method in brief: as §1

[11] = test system: NCI-H1651
Method in brief: as §1

[12] = test system: NCI-H1793
Method in brief: as §1

[13] = test system: NCI-H2347
Method in brief: as §1

[14] = test system: NCI-H23
Method in brief: as §1

[15] = test system: NCI-H2405
Method in brief: as §1

[16] = test system: NCI-H520
Method in brief: as §1

[17] = test system: NCI-H647
Method in brief: as §1

[18] = test system: NCI-H838
Method in brief: as §1

[19] = test system: PC-3 [JPC-3]
Method in brief: as §1

[20] = test system: RERF-LC-KJ
Method in brief: as §1

[21] = test system: UMC-11
Method in brief: as §1

**Q.** With `Cc1csc(=NC2CCCCC2)n1/N=C/c1ccc(O)c(O)c1O` [MIM1] + C[C@]1(O)C[C@@H](c2nc(-c3ccc4ccc(-c5ccccc5)nc4c3)c3c(N)nccn32)C1 [Linsitinib] (partner 1 µM) as the compound, how does the relative viability ([1]; first compound 0.2 µM) read?
**A.** 1.02

**Q.** What about the relative viability ([1]; first compound 0.6325 µM) of the same compound?
**A.** 1.04

**Q.** And the relative viability ([1]; first compound 2 µM)?
**A.** 1.04

**Q.** And the relative viability ([1]; first compound 6.325 µM)?
**A.** 1.03

**Q.** And the relative viability ([1]; first compound 20 µM)?
**A.** 1.25

**Q.** And the relative viability ([2]; first compound 0.2 µM)?
**A.** 1.09

**Q.** What about the relative viability ([2]; first compound 0.6325 µM) of the same compound?
**A.** 1.14

**Q.** And the relative viability ([2]; first compound 2 µM)?
**A.** 1.11

**Q.** And the relative viability ([2]; first compound 6.325 µM)?
**A.** 1.07

**Q.** And the relative viability ([2]; first compound 20 µM)?
**A.** 0.505

**Q.** What about the relative viability ([3]; first compound 0.2 µM) of the same compound?
**A.** 0.77

**Q.** And the relative viability ([3]; first compound 0.6325 µM)?
**A.** 1.12

**Q.** And the relative viability ([3]; first compound 2 µM)?
**A.** 1.01

**Q.** And the relative viability ([3]; first compound 6.325 µM)?
**A.** 0.813

**Q.** And the relative viability ([3]; first compound 20 µM)?
**A.** 0.498

**Q.** And the relative viability ([4]; first compound 0.2 µM)?
**A.** 0.9

**Q.** And the relative viability ([4]; first compound 0.6325 µM)?
**A.** 0.926

**Q.** And the relative viability ([4]; first compound 2 µM)?
**A.** 0.909

**Q.** And the relative viability ([4]; first compound 6.325 µM)?
**A.** 0.92

**Q.** And the relative viability ([4]; first compound 20 µM)?
**A.** 0.187

**Q.** What about the relative viability ([5]; first compound 0.2 µM) of the same compound?
**A.** 0.551

**Q.** And the relative viability ([5]; first compound 0.6325 µM)?
**A.** 0.594

**Q.** And the relative viability ([5]; first compound 2 µM)?
**A.** 0.488

**Q.** And the relative viability ([5]; first compound 6.325 µM)?
**A.** 0.439

**Q.** And the relative viability ([5]; first compound 20 µM)?
**A.** 0.541

**Q.** What about the relative viability ([6]; first compound 0.2 µM) of the same compound?
**A.** 0.994

**Q.** What about the relative viability ([6]; first compound 0.6325 µM) of the same compound?
**A.** 1.08

**Q.** And the relative viability ([6]; first compound 2 µM)?
**A.** 1.22

**Q.** What about the relative viability ([6]; first compound 6.325 µM) of the same compound?
**A.** 0.999

**Q.** And the relative viability ([6]; first compound 20 µM)?
**A.** 1.05

**Q.** And the relative viability ([7]; first compound 0.2 µM)?
**A.** 0.171

**Q.** What about the relative viability ([7]; first compound 0.6325 µM) of the same compound?
**A.** 0.226

**Q.** What about the relative viability ([7]; first compound 2 µM) of the same compound?
**A.** 0.166

**Q.** What about the relative viability ([7]; first compound 6.325 µM) of the same compound?
**A.** 0.207

**Q.** And the relative viability ([7]; first compound 20 µM)?
**A.** 0.214

**Q.** What about the relative viability ([8]; first compound 0.2 µM) of the same compound?
**A.** 0.801

**Q.** And the relative viability ([8]; first compound 0.6325 µM)?
**A.** 0.631

**Q.** And the relative viability ([8]; first compound 2 µM)?
**A.** 0.519

**Q.** And the relative viability ([8]; first compound 6.325 µM)?
**A.** 0.566

**Q.** And the relative viability ([8]; first compound 20 µM)?
**A.** 0.179

**Q.** What about the relative viability ([9]; first compound 0.2 µM) of the same compound?
**A.** 0.882

**Q.** And the relative viability ([9]; first compound 0.6325 µM)?
**A.** 0.978

**Q.** What about the relative viability ([9]; first compound 2 µM) of the same compound?
**A.** 0.728

**Q.** And the relative viability ([9]; first compound 6.325 µM)?
**A.** 0.851

**Q.** What about the relative viability ([9]; first compound 20 µM) of the same compound?
**A.** 0.592

**Q.** And the relative viability ([10]; first compound 0.2 µM)?
**A.** 0.943

**Q.** And the relative viability ([10]; first compound 0.6325 µM)?
**A.** 0.923

**Q.** What about the relative viability ([10]; first compound 2 µM) of the same compound?
**A.** 0.943

**Q.** What about the relative viability ([10]; first compound 6.325 µM) of the same compound?
**A.** 0.787

**Q.** And the relative viability ([10]; first compound 20 µM)?
**A.** 0.624

**Q.** And the relative viability ([11]; first compound 0.2 µM)?
**A.** 0.925

**Q.** And the relative viability ([11]; first compound 0.6325 µM)?
**A.** 0.993

**Q.** What about the relative viability ([11]; first compound 2 µM) of the same compound?
**A.** 1

**Q.** And the relative viability ([11]; first compound 6.325 µM)?
**A.** 0.825

**Q.** And the relative viability ([11]; first compound 20 µM)?
**A.** 0.797

**Q.** What about the relative viability ([12]; first compound 0.2 µM) of the same compound?
**A.** 0.799

**Q.** And the relative viability ([12]; first compound 0.6325 µM)?
**A.** 0.902

**Q.** What about the relative viability ([12]; first compound 2 µM) of the same compound?
**A.** 0.809

**Q.** And the relative viability ([12]; first compound 6.325 µM)?
**A.** 0.925

**Q.** And the relative viability ([12]; first compound 20 µM)?
**A.** 1.02

**Q.** What about the relative viability ([13]; first compound 0.2 µM) of the same compound?
**A.** 0.985

**Q.** What about the relative viability ([13]; first compound 0.6325 µM) of the same compound?
**A.** 0.994

**Q.** What about the relative viability ([13]; first compound 2 µM) of the same compound?
**A.** 0.98

**Q.** What about the relative viability ([13]; first compound 6.325 µM) of the same compound?
**A.** 0.736

**Q.** What about the relative viability ([13]; first compound 20 µM) of the same compound?
**A.** 0.656

**Q.** And the relative viability ([14]; first compound 0.2 µM)?
**A.** 0.553

**Q.** And the relative viability ([14]; first compound 2 µM)?
**A.** 0.488

**Q.** What about the relative viability ([14]; first compound 6.325 µM) of the same compound?
**A.** 0.58

**Q.** What about the relative viability ([14]; first compound 20 µM) of the same compound?
**A.** 0.215

**Q.** What about the relative viability ([15]; first compound 0.2 µM) of the same compound?
**A.** 0.906

**Q.** What about the relative viability ([15]; first compound 0.6325 µM) of the same compound?
**A.** 1.08

**Q.** And the relative viability ([15]; first compound 2 µM)?
**A.** 0.946

**Q.** What about the relative viability ([15]; first compound 6.325 µM) of the same compound?
**A.** 0.778

**Q.** What about the relative viability ([15]; first compound 20 µM) of the same compound?
**A.** 0.742

**Q.** What about the relative viability ([16]; first compound 0.2 µM) of the same compound?
**A.** 0.983

**Q.** And the relative viability ([16]; first compound 0.6325 µM)?
**A.** 1.1

**Q.** And the relative viability ([16]; first compound 2 µM)?
**A.** 0.921

**Q.** What about the relative viability ([16]; first compound 6.325 µM) of the same compound?
**A.** 0.64

**Q.** And the relative viability ([16]; first compound 20 µM)?
**A.** 0.5

**Q.** What about the relative viability ([17]; first compound 0.2 µM) of the same compound?
**A.** 1.28

**Q.** What about the relative viability ([17]; first compound 0.6325 µM) of the same compound?
**A.** 1.07

**Q.** What about the relative viability ([17]; first compound 2 µM) of the same compound?
**A.** 1.32

**Q.** What about the relative viability ([17]; first compound 6.325 µM) of the same compound?
**A.** 0.807

**Q.** What about the relative viability ([17]; first compound 20 µM) of the same compound?
**A.** 0.868

**Q.** What about the relative viability ([18]; first compound 0.2 µM) of the same compound?
**A.** 0.887

**Q.** And the relative viability ([18]; first compound 0.6325 µM)?
**A.** 1.1

**Q.** What about the relative viability ([18]; first compound 2 µM) of the same compound?
**A.** 0.851

**Q.** And the relative viability ([18]; first compound 6.325 µM)?
**A.** 0.765

**Q.** And the relative viability ([18]; first compound 20 µM)?
**A.** 0.464

**Q.** And the relative viability ([19]; first compound 0.2 µM)?
**A.** 0.946

**Q.** And the relative viability ([19]; first compound 0.6325 µM)?
**A.** 0.952

**Q.** What about the relative viability ([19]; first compound 2 µM) of the same compound?
**A.** 1

**Q.** What about the relative viability ([19]; first compound 6.325 µM) of the same compound?
**A.** 0.805

**Q.** What about the relative viability ([19]; first compound 20 µM) of the same compound?
**A.** 0.845

**Q.** What about the relative viability ([20]; first compound 0.2 µM) of the same compound?
**A.** 0.81

**Q.** What about the relative viability ([20]; first compound 0.6325 µM) of the same compound?
**A.** 0.866

**Q.** And the relative viability ([20]; first compound 2 µM)?
**A.** 0.773

**Q.** What about the relative viability ([20]; first compound 6.325 µM) of the same compound?
**A.** 0.473

**Q.** What about the relative viability ([20]; first compound 20 µM) of the same compound?
**A.** 0.287

**Q.** And the relative viability ([21]; first compound 0.2 µM)?
**A.** 1.02

**Q.** What about the relative viability ([21]; first compound 0.6325 µM) of the same compound?
**A.** 1.01

**Q.** And the relative viability ([21]; first compound 2 µM)?
**A.** 1.02

**Q.** And the relative viability ([21]; first compound 6.325 µM)?
**A.** 0.66

**Q.** What about the relative viability ([21]; first compound 20 µM) of the same compound?
**A.** 0.233
